Two compounds from patent publication US7498406B2, “Substantially cell membrane impermeable compound and use thereof” (priority 1999, dated 2009) can be followed below.

Entries after “also recorded” stand apart in the source; their conditions may differ.

The test system of test [1] is BxPC-3 tumours. The test can be described thus: Tumour growth in mice, subcutaneous administration. The class given is in vivo, SCID mice. To be noted: for inhibition of the rate of BxPC-3 tumour growth: subcutaneous. Here is the method: FIG. 23. Inhibition of human pancreatic tumour growth by GSAO. BxPC-3 tumours were established in the proximal midline of female 7 to 9 week old SCID mice. When the tumours were ˜0.1 cm^3 in volume the mice were randomised into two groups and treated with either GSAA or GSAO at doses of 2 (part A) or 10 (part B) mg per kg per day in 0.2 mL of PBS containing 100 mM glycine. The compounds were administered subcutaneously at a site distant from the tumour. Tumour volume and animal weight was measured every 3 days. The GSAO/GSAA tumour volume ratio at day 26 of treatment with 2 mg per kg per day was 0.34 (part A). The GSAO/GSAA tumour volume ratio at day 31 of treatment with 10 mg per kg per day was 0.09 (part B). There were 4 mice per group in part A and 4 mice treated with GSAA and 5 with GSAO in part B. The mice and excised tumours from the experiment described in Part B at day 31 of treatment are shown in Part C. The data points and errors represent the mean and SE of the tumour volumes.
Female 7 to 9 week old SCID or C57Bl6/J mice were used (Massachusetts General Hospital, Boston, Mass.). Mice were held in groups of 3 to 5 at a 12 hour day and night cycle and were fed with animal chow and water ad libidum. SCID mice were anaesthetised by inhalation of isoflurane, the dorsal skin shaved and cleaned with ethanol, and a suspension of 2.5×10^6 BxPC-3 or HT1080 cells in 0.2 mL of DMEM was injected subcutaneously in the proximal midline. C57Bl6/J mice with Lewis lung carcinomas of 0.6-1.2 cm^3 volumes were sacrificed and the skin overlying the tumour was cleaned with betadine and ethanol. Tumour tissue was excised under aseptic conditions and a suspension of tumour cells in 0.9% saline was made by passage of tumour tissue through a sieve and a series of sequentially smaller 22- to 30-gauge hypodermic needles. C57Bl6/J mice were anaesthetised and prepared as for SCID mice and a suspension of Lewis lung carcinoma cells in 0.2 mL of saline was injected subcutaneously in the proximal midline. Tumours were allowed to establish and grow to a size of ˜0.1 cm^3 after which they were randomised into two groups. The tumours were measured in two diameters and tumour volume was calculated using the relationship, tumour volume=a×b^2×0.52, where a is the longest and b the shortest diameters in cm. Animals were treated with either GSAA or GSAO at doses of 2 or 10 mg per kg per day in 0.2 mL of PBS containing 100 mM glycine. The compounds were administered subcutaneously at a site distant from the tumour. Tumour volume and animal weight was measured every 3 days. The tumours were excised and weighed when the animals were sacrificed.

The test system of test [2] is BxPC-3 tumours. In words: Histological analysis of BxPC-3 tumours (CD-31, PCNA, TUNEL). The class given is in vivo, SCID mice. To be noted: for necrosis of treated tumours: not shown. As for the experimental part:
FIG. 26. Inhibition of angiogenesis in human pancreatic tumours by GSAO. Histological sections of the BxPC-3 tumours shown in part C of FIG. 23 from GSAA and GSAO-treated mice were analysed for angiogenesis (CD-31), proliferation (PCNA) and apoptosis (TUNEL).
The tumours shown in FIG. 23C were fixed in Buffered Formalde-Fresh (Fisher Scientific, Fair Lawn, N.J.), embedded in paraffin and […] sections were cut and placed on glass slides. Sections were stained with haematoxylin and eosin or for CD31, PCNA or fragmented DNA (TUNEL). Sections were incubated overnight at 4° C. with a […] of anti-mouse CD-31 antibody (PharMingen, San Diego, Calif.) followed by a 1:200 dilution of biotinylated anti-rat secondary antibody (Vestor, Burlingame, Calif.). The staining was enhanced by tyramide amplification (New England Nuclear, Boston, Mass.). Staining for PCNA was performed as described by Holmgren et al. (1995) while TUNEL labeling of fragmented DNA was performed according to Gavrielli et al. (1992).
Vascular density was determined by selecting 3 tumours, including the smallest and largest, from the control and treatment groups. […] The highest of the three counts was the value taken and two sections from each tumour was examined. The proliferative index was estimated by the percentage of cells scored under 400× magnification (Holmgren et al., 1995). A minimum of 1000 cells was counted in two separate sections. The apoptotic index was estimated by the percentage of cells scored under 400× magnification. A minimum of 1500 cells was counted in two separate sections (Holmgren et al., 1995).

Test [3] deals with BxPC-3 tumours. In words: Tumour growth, continuous intraperitoneal administration by micro-osmotic pumps. The class given is in vivo, SCID mice. Particulars: 10 mg per kg per day. As for the experimental part:
FIG. 27. Inhibition of human pancreatic carcinoma tumour growth by continuous intraperitoneal administration of GSAO. BxPC-3 tumours were established in the proximal midline of female 7 to 9 week old SCID mice. Mice bearing ˜0.1 g tumours were implanted with 14 day alzet model 1002 micro-osmotic pumps (ALZA Corporation, Palo Alto, Calif.) in the peritoneal cavity. The pumps contained 45 mg per mL GSAA or GSAO and delivered 10 mg per kg per day. The pumps were replaced after 14 days. Pump duration is indicated by the shaded bar. Tumour volume and animal weight was measured every 3 days.
SCID mice bearing subcutaneous human BxPC-3-pancreatic carcinoma tumours were implanted with 14 day micro-osmotic pumps in the peritoneal cavity. The pumps delivered 10 mg per kg per day GSAA or GSAO and were replaced after 14 days with fresh pumps. The rate of growth of the BxPC-3 tumours was inhibited in the mice receiving GSAO (FIG. 27). […] When the second pump was exhausted one of the halted tumours began to grow at about the same rate as the GSAA-treated tumour while the other tumour had resolved completely.

The test system of test [4] is Lewis lung tumours. The test can be described thus: Tumour growth, oral administration in water. The class given is in vivo, C57Bl6/J mice. To be noted: ~10 mg per kg per day in water. Here is the method: FIG. 28. Inhibition of human pancreatic carcinoma and murine Lewis lung tumour growth by oral administration of GSAO. BxPC-3 or Lewis lung tumours were established in the proximal midline of female 7 to 9 week old SCID or C57Bl6/J mice, respectively, SCID mice bearing ˜0.5 g BxPC-3 tumours or C57Bl6/J mice bearing 0.1 g Lewis lung tumours were randomised into two groups (n=2 for BxPC-3 and n=3 for Lewis lung) and treated with either GSAA or GSAO (0.05 mg per mL) in their water. Mice drink ˜5 mL of water per day and therefore consumed ˜10 mg GSAO or GSM per kg per day. The water contained 100 mM glycine to minimise oxidation of GSAO. Tumour volume and animal weight was measured every 3 days. The data points and errors represent the mean and SE of the tumour volumes.
SCID mice bearing subcutaneous human pancreatic carcinoma tumours or C57Bl6/J mice bearing subcutaneous murine Lewis lung tumours were fed either ˜10 mg per kg per day GSAO or GSAA in their water.

Turning to `N[C@@H](CCC(=O)N[C@@H](CSCC(=O)Nc1ccc([As](=O)(O)O)cc1)C(=O)NCC(=O)O)C(=O)O` [GSAA, 4-(N-(S-glutathionylacetyl)amino)phenylarsonic acid, reference compound], the “inhibition of the rate of BxPC-3 tumour growth” value in test [1] (2 mg per kg per day) is “no effect”; in test [1] (10 mg per kg per day) it was less than 20%. The “necrosis of treated tumours” value in test [2] is “no macroscopic or microscopic signs of necrosis”. Further, the “rate of BxPC-3 tumour growth” value in test [3] is “no significant effect”. Further, the “reduction of the rate of Lewis lung tumour growth” value in test [4] is reported as “no significant effect”.

As to `NC(CCC(=O)NC(CSCC(=O)Nc1ccc([As]=O)cc1)C(=O)NCC(=O)O)C(=O)O` (stereo not shown) [GSAO, 4-(N-(S-glutathionylacetyl)amino)-phenylarsenoxide], the “inhibition of the rate of BxPC-3 tumour growth” value in test [1] (2 mg per kg per day) was approximately 70%; in test [1] (10 mg per kg per day), more than 90%. Moreover, the “GSAO/GSAA tumour volume ratio” value in test [1] (day 26 of treatment, 2 mg per kg per day) was 0.34; in test [1] (day 31 of treatment, 10 mg per kg per day), 0.09. For the same compound, in test [2] (GSAO- vs GSAA-treated), the “proliferative index of tumour cells (PCNA)” value is “no significant difference”. Also, in test [2] (GSAO- vs GSAA-treated, 10 mg per kg per day, day 31, p<0.001), the “tumour angiogenesis (CD-31)” value is reported as “marked suppression of angiogenesis; also recorded: marked reduction in angiogenesis”. Moreover, the “apoptotic index of tumour cells (TUNEL)” value in test [2] (GSAO- vs GSAA-treated, p=0.05) is given as “increase in the apoptotic index”. Moreover, the “necrosis of treated tumours” value in test [2] is “no macroscopic or microscopic signs of necrosis”. Moreover, in test [3], the “rate of BxPC-3 tumour growth” value is “halted completely in two other mice”. Moreover, the “slowing of tumour growth in one mouse” value in test [3] turned out to be 50%. In addition, the “reduction of the rate of Lewis lung tumour growth” value in test [4] was approximately 50%.
